Assay results reported in patent US20250127169A1, “PLANTS HAVING INCREASED TOLERANCE TO HERBICIDES” (BASF Agricultural Solutions Seed US LLC, priority 2021, published 2025).
Where two headings read alike, the source gives them in different places.

How the values were obtained:
[1] = target: PPO AMATU WT (SEQ ID NO: 1) (Amaranthus tuberculatus, UniProt Q0NZW9); assay: PPO enzyme assay (recombinant); type: biochemical; conditions: 150 μM Protogen, molar concentration for 50% enzyme inhibition
[2] = tested on: Soybean cv Jake WT (non-transgenic); type: in vivo; conditions: post, single plants
Protocol: Soybean cv Jake is transformed as previously described by Siminszky et al., Phytochem Rev. 5:445-458 (2006). After regeneration, transformants are transplanted to soil in small pots, placed in growth chambers (16 hr day/8 hr night; 25° C. day/23° C. night; 65% relative humidity; 130-150 microE m-2 s-1) and subsequently tested for the presence of the T-DNA via Taqman analysis. After a few weeks, healthy, transgenic positive, single copy events are transplanted to larger pots and allowed to grow in the growth chamber. An optimal shoot for cutting is about 3-4 inches tall, with at least two nodes present. Each cutting is taken from the original transformant (mother plant) and dipped into rooting hormone powder (indole-3-butyric acid, IBA). The cutting is then placed in oasis wedges inside a bio-dome. The mother plant is taken to maturity in the greenhouse and harvested for seed. Wild type cuttings are also taken simultaneously to serve as negative controls. The cuttings are kept in the bio-dome for 5-7 days and then transplanted to 3 inch pots and then acclimated in the growth chamber for two more days. Subsequently, the cuttings are transferred to the greenhouse, acclimated for approximately 4 days prior to spray. T0 or 2-week old T1 plants are sprayed with a treatment of the phenyluracils as disclosed SUPRA and optionally photosynthesis inhibitor diuron as negative control. Herbicide injury evaluations are taken at 2, 7, 14 and 21 days after treatment.
Evaluation performed 3 Days After Treatment (DAT) and 1 Week after Treatment (WAT) and shown as injury (0-9) relative to non-transgenic treated plants. Injury Scale: 0-9, 0=no injury, 9=maximum injury. Note: segregating lines.
The following gives a definition of the injury scores measured above: • Score Description of injury • 0 No Injury • 1 Minimal injury, only a few patches of leaf injury or chlorosis. • 2 Minimal injury with slightly stronger chlorosis. Overall growth points remain undamaged. • 3 Slightly stronger injury on secondary leaf tissue, but primary leaf and growth points are still undamaged. • 4 Overall plant morphology is slightly different, some chlorosis and necrosis in secondary growth points and leaf tissue. Stems are intact. Regrowth is highly probable within 1 week. • 5 Overall plant morphology is clearly different, some chlorosis and necrosis on a few leaves and growth points, but primary growth point is intact. Stem tissue is still green. Regrowth is highly probably within 1 week. • 6 Strong injury can be seen on the new leaflet growth. Plant has a high probability to survive only through regrowth at different growth points. Most of the leaves are chlorotic/necrotic but stem tissue is still green. May have regrowth but with noticeable injured appearance. • 7 Most of the active growth points are necrotic. There may be a single growth point that could survive and may be partially chlorotic or green and partially necrotic. Two leaves may still be chlorotic with some green; the rest of the plant including stem is necrotic. • 8 Plant will likely die, and all growth points are necrotic. One leaf may still be chlorotic with some green. The remainder of the plant is necrotic. • 9 Plant is dead.

[3] = tested on: Soybean CD215 WT (non-transgenic); type: in vivo; conditions: post, single plants

SMILES: COC(=O)C(OC)Oc1ccccc1Oc1cc(-n2c(=O)cc(C(F)(F)F)n(C)c2=O)c(F)cc1Br (stereo not drawn) [phenyluracil 1, methyl 2-[2-[2-bromo-4-fluoro-5-[3-methyl-2,6-dioxo-4-(trifluoromethyl)pyrimidin-1-yl]phenoxy]phenoxy]-2-methoxy-acetate]
- IC50 [1]: 0.716 nM

SMILES: CCOC(=O)C(OC)Oc1ccccc1Oc1cc(-n2c(=O)cc(C(F)(F)F)n(C)c2=O)c(F)cc1Br (stereo not drawn) [phenyluracil 2, ethyl 2-[2-[2-bromo-4-fluoro-5-[3-methyl-2,6-dioxo-4-(trifluoromethyl)pyrimidin-1-yl]phenoxy]phenoxy]-2-methoxy-acetate]
- IC50 [1]: 0.323 nM

SMILES: COC(=O)C(OC)Oc1ccccc1Oc1cc(-n2c(=O)cc(C(F)(F)F)n(C)c2=O)c(F)cc1Br (stereo not drawn) [Phenyluracil No. 1]
- injury (0-9) ([2]; 25 g/ha + 1% MSO, 1WAT): 9 (Plant is dead.)
- injury (0-9) ([2]; 25 g/ha + 1% MSO, 3DAT): 9 (Plant is dead.)
- injury (0-9) ([2]; 50 g/ha + 1% MSO, 1WAT): 9 (Plant is dead.)
- injury (0-9) ([2]; 50 g/ha + 1% MSO, 3DAT): 9 (Plant is dead.)
- injury (0-9) ([2]; 100 g/ha + 1% MSO, 1WAT): 9 (Plant is dead.)
- injury (0-9) ([2]; 100 g/ha + 1% MSO, 3DAT): 9 (Plant is dead.)
- injury (0-9) ([3]; 25 g/ha + 1% MSO, 1WAT): 9 (Plant is dead.)
- injury (0-9) ([3]; 25 g/ha + 1% MSO, 3DAT): 9 (Plant is dead.)
- injury (0-9) ([3]; 50 g/ha + 1% MSO, 1WAT): 9 (Plant is dead.)
- injury (0-9) ([3]; 50 g/ha + 1% MSO, 3DAT): 9 (Plant is dead.)
- injury (0-9) ([3]; 100 g/ha + 1% MSO, 1WAT): 9 (Plant is dead.)
- injury (0-9) ([3]; 100 g/ha + 1% MSO, 3DAT): 9 (Plant is dead.)

SMILES: COC(Oc1ccccc1Oc1cc(-n2c(=O)cc(C(F)(F)F)n(C)c2=O)c(F)cc1Br)C(=O)O (stereo not drawn) [phenyluracil 3, 2-[2-[2-bromo-4-fluoro-5-[3-methyl-2,6-dioxo-4-(trifluoromethyl)pyrimidin-1-yl]phenoxy]phenoxy]-2-methoxy-acetic acid]
- IC50 [1]: 0.183 nM
